Test results published in US20240156973A1, “OSTEOTROPIC COMPOSITIONS AND USES THEREOF” (Purdue Research Foundation, priority 2021, published 2024).

Legend:
[1] = target: T1, Thrombopoietin Receptor (TPOR) (Homo sapiens, UniProt P40238); conditions: TPOR binding; cysteine-containing peptides in cyclic form; cited from earlier work
T1 sequence (P40238 26-491 limits assumed): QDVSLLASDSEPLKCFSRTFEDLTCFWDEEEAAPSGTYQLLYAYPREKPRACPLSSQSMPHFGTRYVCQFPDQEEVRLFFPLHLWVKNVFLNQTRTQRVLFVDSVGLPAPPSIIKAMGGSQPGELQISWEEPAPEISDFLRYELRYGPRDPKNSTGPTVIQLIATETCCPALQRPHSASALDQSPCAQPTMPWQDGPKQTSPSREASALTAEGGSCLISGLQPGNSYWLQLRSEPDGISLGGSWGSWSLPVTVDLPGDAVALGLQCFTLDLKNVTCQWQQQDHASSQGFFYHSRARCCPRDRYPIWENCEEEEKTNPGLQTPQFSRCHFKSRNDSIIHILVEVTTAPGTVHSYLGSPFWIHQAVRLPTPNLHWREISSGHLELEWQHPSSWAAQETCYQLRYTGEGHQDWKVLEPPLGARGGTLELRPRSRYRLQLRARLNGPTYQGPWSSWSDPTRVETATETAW

[2] = tested on: female Swiss Webster mice with midshaft femur fractures; assay: Midshaft femur fracture healing, micro-CT of fracture callus; assay type: in vivo; conditions: three weeks
Description: Fracture healing was assessed using micro-CT (Scanco Medical Ag or PerkinElmer). […] Morphometric parameters were quantified in an ROI that included just the fracture callus. […] Statistical analysis was performed using a one-way analysis of variance (ANOVA) and a Dunnett's post-hoc analysis with significance reported at the P value of 0.05. All animal experiments were performed in accordance with protocols approved by Purdue University's Institutional Animal Care and Use Committee (IACUC).

[3] = tested on: male C57BL/6 mice with surgically induced femoral fracture; assay: Surgically induced femoral fracture, X-ray and ex vivo µCT of callus; assay type: in vivo
Description: FIG. 14A are representative μCT images of femurs 3 weeks post-surgery from 12-week-old C57BL/6 male mice that underwent a surgically created fracture and received 3×/wk injection of targeted SRT1720 (SRT1720-Aspartic Acid Oligopeptide described herein; SQ, 6 mg/kg/dose) or vehicle control.
FIG. 14B is a bar graph showing μCT analysis of the mineralized callus volume (BV/TV) for each treatment group ([…], 2, 6, and 20 mg/kg/dose),
FIG. 14C is a bar graph showing μtCT analysis of the callus trabecular thickness (Tb.Th) within the callus region for each treatment group.
(§1) Weekly X-rays were used to examine healing progression. Prior to euthanasia, mice underwent behavioral testing to measure evoked pain behaviors, Upon euthanasia, ex vivo μCT imaging (FIGS. 14A-14C) and analysis was completed to assess fracture callus size and composition.

[4] = tested on: male C57BL/6 mice with surgically induced femoral fracture; assay: Von Frey testing of evoked pain behavior after femoral fracture; assay type: in vivo
Description: FIG. 15 is bar graphs for 12-week-old C57BL/6 male mice that underwent a surgically created fracture and received 3×/wk injection of targeted SRT1720 (SQ, 2, 6, and 20 mg/kg/dose) or vehicle control.
as §1

[5] = 6 mg/kg, 3x/week, 3 weeks, p<0.05
[6] = all doses (2, 6, 20 mg/kg, 3x/week), 3 weeks post-surgery

IEGPTLRQWLAARA [AF12505]
IC50 [1]: 2 nM

GNADGPTLRQWLEGRRPKN [AF12359]
IC50 [1]: 66 nM

GRVBDQIMLSLGG [AF12191]
IC50 [1]: 20000 nM

GGCADGPTLREWISFCGG [AF12193]
IC50 [1]: 60 nM

IEGPTLRQWLAARA-K-β-Ala-IEGPTLRQWLAARA [AF13948]
IC50 [1]: 0.5 nM

LAIEGPTLRQWLHGNGPDT [AF12434]
IC50 [1]: 20 nM

Ile-Glu-Gly-Pro-Thr-Leu-Arg-Gln-Npa-Leu-Ala-Ala-Arg-Sar [TMP]
bone volume, dose-response shape ([2]; untargeted TMP daily 0.1, 1 and 10 nmol s.c.): parabolic dosing window | callus bone volume/total volume, dose-response shape ([2]; untargeted TMP daily 3.3, 33 and 330 nmol/kg s.c.): parabolic dosing window | dose with maximum response on callus mineralization (bone volume) ([2]; untargeted TMP daily s.c.): 1 nmol/day | dose with maximum response on callus mineralization (bone volume/total volume) ([2]; untargeted TMP daily s.c.): 33 nmol/kg

TIKGFTLRQWLKSREHTS [AF12405]
IC50 [1]: 50 nM

GGCTLREWLHGGFCGG [AF12192]
IC50 [1]: 200 nM

O=C(Nc1ccccc1-c1cn2c(CN3CCNCC3)csc2n1)c1cnc2ccccc2n1 [SRT1720]
bone healing ([3]; 6 mg/kg, 3x/week, 3 weeks): accelerated bone healing | mineralized callus volume [3, 5]: significant increase in mineralized callus volume | bone healing ([3]; all doses (2, 6, 20 mg/kg, 3x/week, 3 weeks)): improved healing | paw withdrawal thresholds (evoked responses to tactile stimulus) [4, 5]: more robust and significant improvement | paw withdrawal thresholds (evoked responses to tactile stimulus) [4, 6]: increased paw withdrawal thresholds

N[C@@H](CCC(=O)O)C(=O)N[C@@H](CCC(=O)O)C(=O)N[C@@H](CCC(=O)O)C(=O)N[C@@H](CCC(=O)O)C(=O)N[C@@H](CCC(=O)O)C(=O)N[C@@H](CCC(=O)O)C(=O)N[C@@H](CCC(=O)O)C(=O)N[C@@H](CCC(=O)O)C(=O)N[C@@H](CCC(=O)O)C(=O)N[C@@H](CCC(=O)O)C(=O)N[C@@H](CSSCCOC(=O)N1CCN(Cc2csc3nc(-c4ccccc4NC(=O)c4cnc5ccccc5n4)cn23)CC1)C(=O)O [targeted SRT1720]
paw withdrawal thresholds (evoked responses to tactile stimulus) [4, 6]: improved mN forces
